“And” between values parts separate entries of the source, which are not always exact repeats. Identical values can stand only once.
Tested on: phosphoenolpyruvate carboxylase (PEPC)
Type: biochemical, wheat germ

Row | SMILES | k × 10^3 | T1/2 (half-life seconds)
1 | [K+].[O-][Cl+2]([O-])[O-] [KClO3] | 24 | –
2 | [K+].[O-][Cl+3]([O-])([O-])[O-] [KClO4] | 6.3 | 1.73 min
3 | [I-].[K+] [KI] | 12 | –
4 | N#CS [KSCN, potassium thiocyanate] | 4.67 and 4.70 and 4.72 and 4.62 and 4.55 and 4.46 | –

From patent US5480777A (priority 1995, dated 1996)
